# Data from patent publication USRE30241E, “Esters of 3-(hydroxy or hydroxymethyl)-4-hydroxyphenyl aminomethyl ketones” (Sterling Drug Inc., priority 1970, dated 1980).
# Like-named read-outs stand apart in the source and are kept apart here.
# Legend:
# [1] = tested on: carbachol- or histamine-induced bronchoconstriction; assay: Bronchodilator Test Method I, anesthetized dog, intravenous activity; type: in vivo; settings: Canis lupus familiaris, read-out: Bronchodilatation; for inhibition in vivo at 0.005 mg/kg: 5 mcg/kg i.v.; for inhibition in vivo at 0.02 mg/kg: 20 mcg/kg i.v.; for inhibition in vivo at 0.04 mg/kg: 40 mcg/kg i.v.
# Summary of the method: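 Pentobarbital-anesthetized (30 mg/kg i.v.), open-chest, artificially ventilated dogs were given i.v. carbachol (4-6 µg/kg) or histamine diphosphate (35-45 µg/kg). Test compound was given i.v. mixed with, after, or 1-10 min before the constrictor.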
# [2] = tested on: carbachol- or histamine-induced bronchoconstriction; assay: Bronchodilator Test Method I, anesthetized dog, intraduodenal activity; type: in vivo; settings: Canis lupus familiaris, read-out: Bronchodilation; for inhibition in vivo at 0.03 mg/kg: 30 mcg/kg (salt) intraduodenal; for inhibition in vivo at 0.12 mg/kg: 120 mcg/kg (salt) intraduodenal; for inhibition in vivo at 0.02 mg/kg: 20 mcg/kg (salt) intraduodenal; for inhibition in vivo at 0.08 mg/kg: 80 mcg/kg (salt) intraduodenal; for inhibition in vivo at 0.16 mg/kg: 160 mcg/kg (salt) intraduodenal
# Summary of the method: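 Pentobarbital-anesthetized (30 mg/kg i.v.) open-chest dogs of 9-18 kg, artificially ventilated; airway pressure recorded via tracheal cannula transducer. Test solution injected intraduodenally; from 5 min, i.v. carbachol (4-6 μg/kg) or histamine diphosphate (35-45 μg/kg) challenges every 30-60 min gauged degree and duration of bronchodilation.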
# [3] = tested on: guinea pig bronchioles constricted by carbachol; assay: Bronchodilator Test Method II, in vitro perfused guinea pig lung
# Experimental: In this method bronchodilator activity in vitro was determined by testing the effect of graded doses of the test compounds on guinea pig bronchioles constricted by carbachol, using the technique reported by Sollman and von Oettingen, Proc. Soc, Exp. Biol. Med., 25,692 (1928) as modified by Tainter, Pedden, and James, J. Pharm. Exp. Ther., 51, 371 (1934) and by Luduena, von Euler, Tullar, and Lands, Arch. intern. Pharmacol., III, 392 (1957).
# heart rate = assay: Cardiovascular studies: effect on the heart rate in the anesthetized dog; type: in vivo
# Experimental: (§1) The effect of a rapid intravenous injection on the heart rate the heart rate was conducted in anesthetized dogs under normal respiration. A few open-chest dogs were also tested. Increase in heart rate was measured by using an electrocardiograph attached to the dog. Readings were taken every 0.5-1 minute for the first 10 minutes and every 2-5 minutes thereafter until recovery. In some cases, several doses and more than one compound were tested alternately in the same dog. The blood pressure effect was simultaneously recorded.
# diastolic blood pressure = assay: Effect on diastolic blood pressure in the anesthetized dog; type: in vivo
# Experimental: as §1
smiles,measurement,setting,value
"CC(C)NCC(O)c1ccc(O)c(O)c1 (stereo not drawn) [Ref. Cpd. II, 3,4-Dihydroxy-alpha-(isopropylaminomethyl)benzyl alcohol, reference compound]",inhibition in vivo at 0.0003 mg/kg,"[1]; 1 min, 0.3 mcg/kg i.v., 1-2 min",23%
same,inhibition in vivo at 0.0006 mg/kg,"[1]; 1 min, 0.6 mcg/kg i.v., 1-2 min",35%
same,inhibition in vivo at 0.0012 mg/kg,"[1]; 1 min, 1.2 mcg/kg i.v., 1-2 min",55%
same,inhibition in vivo at 0.03 mg/kg,"[2]; 10 min, 10 min",9%
same,inhibition in vivo at 0.12 mg/kg,"[2]; 10 min, 10 min",28%
same,inhibition in vivo at 0.03 mg/kg,"[2]; 0.5 h, 30 min",5%
same,inhibition in vivo at 0.12 mg/kg,"[2]; 0.5 h, 30 min",5%
same,inhibition in vivo at 0.03 mg/kg,"[2]; 1 h, 60 min",0%
same,inhibition in vivo at 0.12 mg/kg,"[2]; 1 h, 60 min",19%
same,"Duration, Mean",[3]; dose 0.75 mcg (base),5 min
same,Mean Maximal Increase in the Heart Rate,heart rate; 0.15 mcg/kg (salt) i.v.,26%
same,Mean Maximal Increase in the Heart Rate,heart rate; 0.3 mcg/kg (salt) i.v.,35%
same,Mean Maximal Increase in the Heart Rate,heart rate; 0.6 mcg/kg (salt) i.v.,50%
same,Mean Decrease in Diastolic Blood Pressure,diastolic blood pressure; 0.15 meg/kg (salt) i.v.,12%
same,Mean Decrease in Diastolic Blood Pressure,diastolic blood pressure; 0.3 meg/kg (salt) i.v.,32%
same,Mean Decrease in Diastolic Blood Pressure,diastolic blood pressure; 0.6 meg/kg (salt) i.v.,40%
"COc1ccc(C(=O)Oc2ccc(C(O)CNC(C)(C)C)cc2OC(C)=O)cc1 (stereo not drawn) [Example 145, 3-acetoxy-4-(p-anisoyloxy)-alpha-(tert-butylaminomethyl)benzyl alcohol methanesulfonate]",inhibition in vivo at 0.005 mg/kg,"[1]; 5 min, 5 min",65%
same,inhibition in vivo at 0.02 mg/kg,"[1]; 5 min, 5 min",87%
same,inhibition in vivo at 0.04 mg/kg,"[1]; 5 min, 5 min",98%
same,inhibition in vivo at 0.005 mg/kg,"[1]; 0.5 h, 30 min",30%
same,inhibition in vivo at 0.02 mg/kg,"[1]; 0.5 h, 30 min",45%
same,inhibition in vivo at 0.04 mg/kg,"[1]; 0.5 h, 30 min",70%
same,inhibition in vivo at 0.005 mg/kg,"[1]; 1 h, 60 min",24%
same,inhibition in vivo at 0.02 mg/kg,"[1]; 1 h, 60 min",35%
same,inhibition in vivo at 0.04 mg/kg,"[1]; 1 h, 60 min",68%
same,inhibition in vivo at 0.005 mg/kg,"[1]; 2 h, 120 min",22%
same,inhibition in vivo at 0.02 mg/kg,"[1]; 2 h, 120 min",27%
same,inhibition in vivo at 0.04 mg/kg,"[1]; 2 h, 120 min",42%
same,inhibition in vivo at 0.04 mg/kg,"[1]; 3 h, 180 min",38%
same,inhibition in vivo at 0.04 mg/kg,"[1]; 4 h, 240 min",24%
same,inhibition in vivo at 0.02 mg/kg,"[2]; 5 min, 5 min",33%
same,inhibition in vivo at 0.08 mg/kg,"[2]; 5 min, 5 min",53%
same,inhibition in vivo at 0.16 mg/kg,"[2]; 5 min, 5 min",82%
same,inhibition in vivo at 0.02 mg/kg,"[2]; 0.5 h, 30 min",32%
same,inhibition in vivo at 0.08 mg/kg,"[2]; 0.5 h, 30 min",48%
same,inhibition in vivo at 0.16 mg/kg,"[2]; 0.5 h, 30 min",81%
same,inhibition in vivo at 0.02 mg/kg,"[2]; 1 h, 60 min",32%
same,inhibition in vivo at 0.08 mg/kg,"[2]; 1 h, 60 min",45%
same,inhibition in vivo at 0.16 mg/kg,"[2]; 1 h, 60 min",81%
same,inhibition in vivo at 0.02 mg/kg,"[2]; 2 h, 120 min",33%
same,inhibition in vivo at 0.08 mg/kg,"[2]; 2 h, 120 min",49%
same,inhibition in vivo at 0.16 mg/kg,"[2]; 2 h, 120 min",63%
same,inhibition in vivo at 0.02 mg/kg,"[2]; 3 h, 180 min",29%
same,inhibition in vivo at 0.08 mg/kg,"[2]; 3 h, 180 min",32%
same,inhibition in vivo at 0.16 mg/kg,"[2]; 3 h, 180 min",48%
same,inhibition in vivo at 0.02 mg/kg,"[2]; 4 h, 240 min",25%
same,inhibition in vivo at 0.08 mg/kg,"[2]; 4 h, 240 min",30%
same,inhibition in vivo at 0.16 mg/kg,"[2]; 4 h, 240 min",32%
same,inhibition in vivo at 0.02 mg/kg,"[2]; 5 h, 300 min",23%
same,inhibition in vivo at 0.16 mg/kg,"[2]; 5 h, 300 min",37%
same,ED50,[3]; carbachol (Doryl) 1:5 million,0.25 µg (base)
same,"Duration, Mean",[3]; dose 1 mcg (base),> 72 min
same,Mean Maximal Increase in the Heart Rate,heart rate; 1.25 mcg/kg (salt) i.v.,9%
same,Mean Maximal Increase in the Heart Rate,heart rate; 5.0 mcg/kg (salt) i.v.,13%
same,Mean Maximal Increase in the Heart Rate,heart rate; 20 mcg/kg (salt) i.v.,27%
same,Mean Decrease in Diastolic Blood Pressure,diastolic blood pressure; 1.25 meg/kg (salt) i.v.,7%
same,Mean Decrease in Diastolic Blood Pressure,diastolic blood pressure; 5.0 meg/kg (salt) i.v.,12%
same,Mean Decrease in Diastolic Blood Pressure,diastolic blood pressure; 20 meg/kg (salt) i.v.,20%
